Values quoted from earlier work as cited in patent US5681581A, “Controlled release pharmaceutical formulations of 3'-azido-3'-deoxythymidine and methods of use” (priority 1995, dated 1997).
“Also recorded” adds a separate entry of the source.

Columns and labels:
reverse transcriptase = conditions: result in words
DNA polymerase = conditions: result in words
bone marrow cells = conditions: than AZT
[1] = intravenous AZT 2.5 mg/kg, patients
HIV [2] = conditions: result in words
[3] = result in words
[4] = test system: cells of HIV infected patients; conditions: HIV infected patients taking AZT
[5] = animals
[6] = capsules and liquid solutions, oral
HIV [7] = test system: HIV

## Cc1cn([C@H]2C[C@H](N)[C@@H](COP(=O)(O)OP(=O)(O)OP(=O)(O)O)O2)c(=O)[nH]c1=O [AMT 5'triphosphate]
Reverse transcriptase
  inhibition of reverse transcriptase: inhibitor of HIV reverse transcriptase
DNA polymerase
  inhibition of DNA polymerase: inhibitor of DNA polymerase

## Cc1cn([C@H]2C[C@H](N)[C@@H](CO)O2)c(=O)[nH]c1=O [AMT, 3'-amino-3'-deoxythymidine]
Bone marrow cells
  toxicity to bone marrow cells relative to AZT: 5-7 times more toxic
[1]
  AMT level relative to AZT by AUC: about twenty
Reverse transcriptase
  binding of the reverse transcriptase enzyme: competitive binding
HIV [2]
  antiviral activity: no antiviral activity; also recorded: poor antiviral activity
  effect on the anti-HIV action of AZT: antagonistic effect
[3]
  anti-cancer effects: potent anti-cancer effects

## Cc1cn([C@H]2C[C@H](N=[N+]=[N-])[C@@H](COP(=O)(O)OP(=O)(O)OP(=O)(O)O)O2)c(=O)[nH]c1=O [triphosphate form]
HIV [2]
  inhibitory effect on viral transcription: most inhibitory effect

## Cc1cn([C@H]2C[C@H](N=[N+]=[N-])[C@@H](CO)O2)c(=O)[nH]c1=O [AZT, 3'-azido-3'-deoxythymidine]
Reverse transcriptase
  inhibition of reverse transcriptase: inhibitor of reverse transcriptase
[4]
  relationship between phosphorylated AZT and dosage or blood levels: showed no relationship
[5]
  AMT levels by oral route: higher levels of AMT
[6]
  absorption from the gastrointestinal tract: rapidly absorbed
HIV [7]; 1500 mg per day
  effectiveness in asymptomatic sero-positive patients: not as effective as 500 mg per day
HIV [7]; human, in vivo
  toxicity of dose: too toxic
